US20090233957A1, “(-)-BELOXEPIN AND METHODS FOR ITS SYNTHESIS AND USE” (priority 2008, published 2009)

Key:
5HT2C receptor = target: T1, 5HT2C receptor (Homo sapiens, UniProt P28335); settings: published report; cited from earlier work
T1 sequence (P28335 33-458): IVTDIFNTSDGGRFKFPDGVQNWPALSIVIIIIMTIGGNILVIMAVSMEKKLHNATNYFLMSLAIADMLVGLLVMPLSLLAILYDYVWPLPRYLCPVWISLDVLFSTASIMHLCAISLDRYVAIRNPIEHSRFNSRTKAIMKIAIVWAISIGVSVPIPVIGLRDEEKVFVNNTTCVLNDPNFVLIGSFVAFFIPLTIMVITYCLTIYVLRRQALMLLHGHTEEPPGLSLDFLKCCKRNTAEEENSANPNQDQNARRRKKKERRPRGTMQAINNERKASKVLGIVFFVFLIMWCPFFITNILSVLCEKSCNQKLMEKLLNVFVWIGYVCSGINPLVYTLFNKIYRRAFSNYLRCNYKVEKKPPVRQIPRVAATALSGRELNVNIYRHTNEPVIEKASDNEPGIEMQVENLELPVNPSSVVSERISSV

human volunteers = settings: 25-400 mg, cited from earlier work
human recombinant CYP2D6 = target: T2, human recombinant CYP2D6 (Homo sapiens, UniProt P10635); assay: CYP2D6 inhibition, MAMC substrate; format: in vitro ADME
T2 construct: purchased BD Bioscience
T2 sequence (P10635 whole entry): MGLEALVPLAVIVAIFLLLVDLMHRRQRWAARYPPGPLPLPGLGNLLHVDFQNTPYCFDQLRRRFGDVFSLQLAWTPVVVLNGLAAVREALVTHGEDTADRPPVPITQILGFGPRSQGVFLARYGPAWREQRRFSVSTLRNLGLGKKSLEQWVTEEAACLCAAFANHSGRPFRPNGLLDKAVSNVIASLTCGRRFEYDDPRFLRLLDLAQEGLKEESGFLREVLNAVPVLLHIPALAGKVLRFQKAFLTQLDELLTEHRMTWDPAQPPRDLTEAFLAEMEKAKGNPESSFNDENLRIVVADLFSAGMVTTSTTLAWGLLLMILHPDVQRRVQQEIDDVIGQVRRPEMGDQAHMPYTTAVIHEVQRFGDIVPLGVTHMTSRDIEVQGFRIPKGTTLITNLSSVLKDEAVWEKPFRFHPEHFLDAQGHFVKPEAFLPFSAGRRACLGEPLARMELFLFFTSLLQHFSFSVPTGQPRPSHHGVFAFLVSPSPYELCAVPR
Description: Protocol. […] The source of the enzyme was microsomes containing human recombinant CYP2D6 obtained from BD Bioscience. Conversion of MAMC to 7-hydroxy-4-(aminomethyl)coumarin was measured using a PerkinElmer Fusion with a 390 nm excitation filter and a 460 nm emission filter.

[1] = target: T3, cloned human 5HT2B receptor (Homo sapiens, UniProt P41595); assay: 5HT2B functional assay, intracellular Ca2+ in CHO cells; format: cell-based
T3 construct: expressed in transfected cells; host or cells: CHO cells
T3 sequence (P41595 whole entry): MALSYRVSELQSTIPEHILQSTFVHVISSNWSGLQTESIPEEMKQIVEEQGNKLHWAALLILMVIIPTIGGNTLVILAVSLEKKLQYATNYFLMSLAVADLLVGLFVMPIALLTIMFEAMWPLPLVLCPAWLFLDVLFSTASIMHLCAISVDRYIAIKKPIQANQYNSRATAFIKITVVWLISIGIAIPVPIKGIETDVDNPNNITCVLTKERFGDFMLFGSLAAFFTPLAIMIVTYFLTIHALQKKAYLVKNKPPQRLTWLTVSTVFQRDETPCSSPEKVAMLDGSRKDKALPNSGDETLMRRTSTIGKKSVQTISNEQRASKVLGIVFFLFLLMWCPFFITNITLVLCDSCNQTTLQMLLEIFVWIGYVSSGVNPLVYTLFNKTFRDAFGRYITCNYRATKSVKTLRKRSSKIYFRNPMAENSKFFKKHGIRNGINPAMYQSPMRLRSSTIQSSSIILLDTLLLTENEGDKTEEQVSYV
Description: (§1) Agonist effects at the 5HT2B receptor were assessed by incubation at 22° C. of a series of concentrations of test compound with intact CHO cells heterologously expressing the cloned human 5HT2B receptor and measuring intracellular [Ca^2+] by fluorimetry according to the method of Porter et al., 1991, Brit. J. Pharmacol. 128:13-20. Antagonist effects were assessed by the ability of a series of concentrations of test compound to block the increase in intracellular [Ca^2+] that occurred in the presence of 0.3 nM serotonin under the same conditions. EC50 and IC50 values were determined using standard methods.

major depression = settings: human, in vivo; cited from earlier work
[2] = target: T4, cloned human 5HT2A receptor (Homo sapiens, UniProt P28223); assay: 5HT2A receptor binding assay, [3H]ketanserin; settings: HEK-293 membranes
T4 construct: expressed in transfected cells; host or cells: HEK-293 cells
T4 sequence (P28223 whole entry): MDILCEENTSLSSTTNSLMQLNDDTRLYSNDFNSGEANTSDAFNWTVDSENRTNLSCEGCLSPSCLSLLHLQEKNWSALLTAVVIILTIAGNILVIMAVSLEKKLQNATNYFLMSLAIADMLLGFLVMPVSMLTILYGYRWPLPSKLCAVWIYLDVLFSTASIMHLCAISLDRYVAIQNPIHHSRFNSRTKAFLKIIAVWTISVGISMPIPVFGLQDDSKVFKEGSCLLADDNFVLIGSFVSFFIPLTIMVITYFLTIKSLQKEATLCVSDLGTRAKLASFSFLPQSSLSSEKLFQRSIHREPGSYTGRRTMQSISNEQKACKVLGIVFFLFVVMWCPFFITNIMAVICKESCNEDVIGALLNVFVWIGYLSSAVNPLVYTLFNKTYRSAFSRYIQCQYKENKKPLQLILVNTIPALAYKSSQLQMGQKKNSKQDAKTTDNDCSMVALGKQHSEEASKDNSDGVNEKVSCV
Description: For the 5HT2A receptor binding assay, [^3H]ketanserin (0.5 nM) was incubated for 60 min at 22° C. with membranes prepared from HEK-293 cells heterologously expressing the cloned human 5-HT2A receptor according to the method of Bonhaus et al., 1995, Brit. J. Pharmacol. 115:622-628. Various concentrations of test compound were added and bound radioactivity was determined by scintillation counting. Non-specific binding was determined in the presence of 1.0 μM unlabeled ketanserin. The Ki value for the test compound was determined using standard methods.

[3] = single doses of 10 to 500 mg; cited from earlier work
[4] = target: T5, cloned human 5HT2C receptor (Homo sapiens, UniProt P28335); assay: 5HT2C receptor binding assay, [3H]mesulergine; settings: CHO membranes
T5 construct: expressed in transfected cells; host or cells: CHO cells
T5 sequence (P28335 33-458): T1 sequence (P28335 33-458)
Description: For the 5HT2C receptor binding assay, [^3H]mesulergine (1.0 nM) was incubated for 60 min at 37° C. with membranes prepared from Chinese hamster ovary cells heterologously expressing the cloned human 5-HT2C receptor according to the method of Stam et al., 1994, Eur. J. Pharmacol. 269:339-348. Various concentrations of test compound were added and bound radioactivity was determined by scintillation counting. Non-specific binding was determined in the presence of 10 μM RS102221. The Ki value for the test compound was determined using standard methods.

[5] = tested on: patients hospitalized for depression; settings: phase IIA; cited from earlier work
[6] = tested on: noradrenergic, histaminergic and cholinergic receptors; settings: published report; cited from earlier work
[7] = in vivo; cited from earlier work
[8] = target: T4, cloned human 5HT2A receptor; assay: 5HT2A functional assay, intracellular Ca2+ in HEK-293 cells; format: cell-based
Description: as §1, with “5HT2A” for “5HT2B”, “HEK-293” for “CHO”, “Jerman” for “Porter”, “2001, Eur.” for “1991, Brit.”, “414:23-30).” for “128:13-20.”, “3.0” for “0.3”

[9] = tested on: noradrenaline reuptake in synaptosomes from rat and primate brain; settings: published reports; cited from earlier work
[10] = target: T3, cloned human 5HT2B receptor; assay: 5HT2B receptor binding assay, [125I]DOI; settings: CHO membranes
Description: For the 5HT2B receptor binding assay, [^125I](±)[…] (DOI) (0.2 nM) was incubated for 15 min at 37° C. with membranes prepared from Chinese hamster ovary cells heterologously expressing the cloned human 5HT2B receptor according to the method of Choi et al., 1994, FEBS Lett 352:393-399. Various concentrations of test compound were added and bound radioactivity was determined by scintillation counting. Non-specific binding was determined in the presence of 1.0 μM unlabeled DOI. The Ki value for the test compound was determined using standard methods.

[11] = cited from earlier work
[12] = target: T6, cloned human NE transporter (hNET) (Homo sapiens, UniProt P23975); assay: NE transporter binding assay, [3H]nisoxetine; settings: membranes of CHO cells expressing hNET; read-out: NET Ki
T6 construct: expressed in transfected cells; host or cells: CHO cells
T6 sequence (P23975 whole entry): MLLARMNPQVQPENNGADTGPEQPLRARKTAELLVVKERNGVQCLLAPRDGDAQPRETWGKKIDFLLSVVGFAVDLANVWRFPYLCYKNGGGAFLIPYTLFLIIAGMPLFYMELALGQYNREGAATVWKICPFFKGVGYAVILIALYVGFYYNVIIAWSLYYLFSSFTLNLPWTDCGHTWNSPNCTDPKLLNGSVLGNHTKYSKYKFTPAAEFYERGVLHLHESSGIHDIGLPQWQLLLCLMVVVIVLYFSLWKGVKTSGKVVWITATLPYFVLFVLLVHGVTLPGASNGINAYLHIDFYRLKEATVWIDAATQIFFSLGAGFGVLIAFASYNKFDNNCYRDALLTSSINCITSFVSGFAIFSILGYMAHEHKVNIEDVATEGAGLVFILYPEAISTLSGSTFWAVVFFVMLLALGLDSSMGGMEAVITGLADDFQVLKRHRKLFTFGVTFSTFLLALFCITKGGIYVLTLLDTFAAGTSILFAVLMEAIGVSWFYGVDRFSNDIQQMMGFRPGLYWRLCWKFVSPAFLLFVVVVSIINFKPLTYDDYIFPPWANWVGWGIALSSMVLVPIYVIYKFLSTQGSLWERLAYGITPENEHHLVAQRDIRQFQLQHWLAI
Description: Protocols. For the NE transporter binding assay, [^3H]nisoxetine (1.0 nM) was incubated with various concentrations of test compounds for 2 hours at 4° C. with membranes prepared from Chinese hamster ovary cells (CHO) cells heterologously expressing the cloned human NE transporter (hNET). Bound radioactivity was determined by scintillation spectroscopy.

[13] = tested on: animal models of depression; settings: preclinical; cited from earlier work
[14] = target: T5, cloned human 5HT2C receptor; assay: 5HT2C functional assay, intracellular Ca2+ in CHO cells; format: cell-based
Description: as §1, with “5HT2C” for “5HT2B”, “Jerman” for “Porter”, “2001, Eur.” for “1991, Brit.”, “414:23-30.” for “128:13-20.”, “3.0” for “0.3”

[15] = antagonist mode, vs 3.0 nM serotonin

Cc1cccc2c1Oc1ccccc1C1(O)CCN(C)CC21 (racemic) [(±)-beloxepin, cis-1,2,3,4,4a,13b-hexahydro-2,10-dimethyldiben-[2,3:6,7]oxepino[4,5c]pyridine-4a-ol]]
affinity for the 5HT2C receptor (5HT2C receptor): modest affinity | effect on REM sleep (human volunteers; acutely and sub-chronically): dose-dependently prolonged REM latency | side effects (human volunteers): No sedation or other side effects were observed | IC50 (human recombinant CYP2D6): 536 nM | 5HT2B functional activity type [1]: antagonist | IC50 ([1]; antagonist mode, vs 0.3 nM serotonin): > 10000 nM | efficacy in major depression (major depression): insufficient efficacy | Ki [2]: 440 nM | tmax [3]: one to four | Ki [4]: 830 nM | fraction of patients with a moderate to good response (HAMD score reduction) [5]: ⅔ | affinity for noradrenergic, histaminergic and cholinergic receptors [6]: no or very weak affinity | logBB [7]: 0.82 | 5HT2A functional activity type [8]: antagonist | IC50 [8, 15]: 5200 nM | less affinity for other monoamine carriers (serotonin and dopamine transporters) than for noradrenaline reuptake [9]: greater than 100 fold | Ki [10]: 1000 nM | tmax, steady state ([11]; doses of 50 to 800 mg, healthy subjects): 1.17 h | adverse effects ([11]; healthy volunteers, up to 800 mg/day): No important adverse effects were observed | Ki [12]: 700 nM | antidepressant properties [13]: offsetting acquired immobility behavior, reserpine-induced hypothermia, and conditioned avoidance behavior | side effects [13]: did not cause sedation, motor impairment or other untoward side effects | 5HT2C functional activity type [14]: antagonist | IC50 [14, 15]: > 10000 nM
